Laboratory results as given in ChEMBL document CHEMBL1144455, “A small molecule-kinase interaction map for clinical kinase inhibitors” (Nat Biotechnol, 2005).

Legend:
[1] = biological target: T1, Serine/threonine-protein kinase 36 (Homo sapiens, UniProt Q9NRP7)
T1 sequence (Q9NRP7 whole entry): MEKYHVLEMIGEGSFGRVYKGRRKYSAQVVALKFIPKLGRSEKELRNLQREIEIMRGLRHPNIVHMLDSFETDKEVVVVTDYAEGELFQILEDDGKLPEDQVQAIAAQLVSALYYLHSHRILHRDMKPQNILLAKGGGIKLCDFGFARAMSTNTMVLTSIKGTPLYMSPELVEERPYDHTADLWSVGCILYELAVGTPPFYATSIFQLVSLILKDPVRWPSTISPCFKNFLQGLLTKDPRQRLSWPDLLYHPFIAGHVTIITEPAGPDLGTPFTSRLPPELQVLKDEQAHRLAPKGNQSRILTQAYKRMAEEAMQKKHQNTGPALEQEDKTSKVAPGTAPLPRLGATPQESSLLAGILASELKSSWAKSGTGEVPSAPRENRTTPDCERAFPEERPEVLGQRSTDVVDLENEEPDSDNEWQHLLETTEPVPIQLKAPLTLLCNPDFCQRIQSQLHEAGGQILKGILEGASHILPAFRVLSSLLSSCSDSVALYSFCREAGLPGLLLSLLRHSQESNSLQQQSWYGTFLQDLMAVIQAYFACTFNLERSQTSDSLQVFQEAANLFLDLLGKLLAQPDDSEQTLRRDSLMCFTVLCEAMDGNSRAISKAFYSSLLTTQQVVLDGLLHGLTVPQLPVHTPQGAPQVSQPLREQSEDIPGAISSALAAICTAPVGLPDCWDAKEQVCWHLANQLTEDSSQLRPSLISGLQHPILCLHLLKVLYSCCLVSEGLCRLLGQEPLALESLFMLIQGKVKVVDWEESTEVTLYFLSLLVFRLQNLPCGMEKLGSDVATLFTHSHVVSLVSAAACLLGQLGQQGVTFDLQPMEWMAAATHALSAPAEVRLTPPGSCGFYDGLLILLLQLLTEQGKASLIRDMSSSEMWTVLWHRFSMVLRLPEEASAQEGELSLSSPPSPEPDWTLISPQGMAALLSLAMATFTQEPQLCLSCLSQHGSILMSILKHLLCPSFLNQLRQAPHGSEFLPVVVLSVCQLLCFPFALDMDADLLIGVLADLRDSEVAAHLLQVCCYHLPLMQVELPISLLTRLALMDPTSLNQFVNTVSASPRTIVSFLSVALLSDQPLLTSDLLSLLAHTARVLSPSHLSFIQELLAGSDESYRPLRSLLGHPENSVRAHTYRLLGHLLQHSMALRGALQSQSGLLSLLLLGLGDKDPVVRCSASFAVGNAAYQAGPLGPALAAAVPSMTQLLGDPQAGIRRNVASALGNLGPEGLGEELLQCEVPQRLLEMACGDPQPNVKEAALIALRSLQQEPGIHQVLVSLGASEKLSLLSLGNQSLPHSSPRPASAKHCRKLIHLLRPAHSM

[2] = biological target: Protein-tyrosine kinase 6 (Homo sapiens, UniProt Q13882)
Chain of Protein-tyrosine kinase 6 (Q13882 whole entry): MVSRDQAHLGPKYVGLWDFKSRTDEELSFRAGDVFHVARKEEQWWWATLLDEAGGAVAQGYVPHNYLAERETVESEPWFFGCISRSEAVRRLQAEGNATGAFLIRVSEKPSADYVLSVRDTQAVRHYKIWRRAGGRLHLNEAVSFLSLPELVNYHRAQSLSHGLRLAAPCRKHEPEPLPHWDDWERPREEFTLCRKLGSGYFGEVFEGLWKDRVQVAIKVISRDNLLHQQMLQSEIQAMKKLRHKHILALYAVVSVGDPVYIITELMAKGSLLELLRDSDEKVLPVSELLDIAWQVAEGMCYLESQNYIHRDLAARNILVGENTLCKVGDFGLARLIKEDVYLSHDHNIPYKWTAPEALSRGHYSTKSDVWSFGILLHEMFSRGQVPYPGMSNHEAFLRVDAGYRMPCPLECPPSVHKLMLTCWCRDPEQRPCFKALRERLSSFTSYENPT

[3] = biological target: Tyrosine-protein kinase FRK (Homo sapiens, UniProt P42685)
Chain of Tyrosine-protein kinase FRK (P42685 whole entry): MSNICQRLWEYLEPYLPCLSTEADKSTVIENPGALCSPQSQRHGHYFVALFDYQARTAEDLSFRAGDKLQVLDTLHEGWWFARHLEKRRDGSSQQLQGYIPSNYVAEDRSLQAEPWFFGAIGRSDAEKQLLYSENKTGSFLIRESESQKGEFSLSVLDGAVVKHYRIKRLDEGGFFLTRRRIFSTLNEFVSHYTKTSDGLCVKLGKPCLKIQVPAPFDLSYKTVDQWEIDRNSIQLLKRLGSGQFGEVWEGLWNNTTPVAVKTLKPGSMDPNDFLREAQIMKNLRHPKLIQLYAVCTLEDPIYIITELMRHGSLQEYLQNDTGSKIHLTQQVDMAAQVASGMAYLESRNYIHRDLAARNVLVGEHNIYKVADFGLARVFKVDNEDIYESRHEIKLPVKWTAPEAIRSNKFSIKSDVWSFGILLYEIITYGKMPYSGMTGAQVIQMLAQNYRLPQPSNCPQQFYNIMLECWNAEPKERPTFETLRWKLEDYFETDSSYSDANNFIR

[4] = biological target: T2, Membrane-associated tyrosine- and threonine-specific cdc2-inhibitory kinase (Homo sapiens, UniProt Q99640)
T2 sequence (Q99640 whole entry): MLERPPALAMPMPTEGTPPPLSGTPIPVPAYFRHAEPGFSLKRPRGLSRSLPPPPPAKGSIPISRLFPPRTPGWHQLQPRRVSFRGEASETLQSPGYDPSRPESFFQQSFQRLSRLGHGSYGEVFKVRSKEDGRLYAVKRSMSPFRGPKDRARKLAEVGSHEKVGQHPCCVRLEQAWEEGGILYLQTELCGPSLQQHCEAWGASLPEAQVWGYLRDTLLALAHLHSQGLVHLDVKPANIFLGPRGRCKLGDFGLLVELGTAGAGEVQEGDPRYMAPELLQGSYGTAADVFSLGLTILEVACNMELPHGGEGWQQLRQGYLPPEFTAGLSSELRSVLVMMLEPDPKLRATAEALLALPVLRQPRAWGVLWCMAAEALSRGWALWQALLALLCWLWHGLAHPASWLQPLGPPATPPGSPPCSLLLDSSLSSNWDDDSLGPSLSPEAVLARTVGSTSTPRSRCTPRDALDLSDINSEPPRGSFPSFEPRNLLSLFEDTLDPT

[5] = biological target: Tyrosine-protein kinase Fer (Homo sapiens, UniProt P16591)
[6] = biological target: Dual specificity protein kinase CLK3 (Homo sapiens, UniProt P49761)
Chain of Dual specificity protein kinase CLK3 (P49761 whole entry): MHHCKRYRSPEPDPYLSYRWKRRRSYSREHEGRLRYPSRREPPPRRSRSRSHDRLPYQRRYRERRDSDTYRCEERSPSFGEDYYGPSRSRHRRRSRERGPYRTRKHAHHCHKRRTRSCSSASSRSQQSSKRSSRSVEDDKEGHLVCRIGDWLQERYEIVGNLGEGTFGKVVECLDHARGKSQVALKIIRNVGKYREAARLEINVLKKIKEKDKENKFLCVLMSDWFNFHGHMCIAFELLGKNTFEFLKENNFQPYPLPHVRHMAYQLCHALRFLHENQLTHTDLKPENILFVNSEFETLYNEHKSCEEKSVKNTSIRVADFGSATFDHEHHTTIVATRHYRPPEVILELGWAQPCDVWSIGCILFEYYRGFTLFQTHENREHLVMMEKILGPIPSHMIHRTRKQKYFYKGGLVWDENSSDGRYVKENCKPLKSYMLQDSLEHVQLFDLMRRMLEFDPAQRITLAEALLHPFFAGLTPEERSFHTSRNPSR

[7] = biological target: Tyrosine-protein kinase BTK (Homo sapiens, UniProt Q06187)
Chain of Tyrosine-protein kinase BTK (Q06187 whole entry): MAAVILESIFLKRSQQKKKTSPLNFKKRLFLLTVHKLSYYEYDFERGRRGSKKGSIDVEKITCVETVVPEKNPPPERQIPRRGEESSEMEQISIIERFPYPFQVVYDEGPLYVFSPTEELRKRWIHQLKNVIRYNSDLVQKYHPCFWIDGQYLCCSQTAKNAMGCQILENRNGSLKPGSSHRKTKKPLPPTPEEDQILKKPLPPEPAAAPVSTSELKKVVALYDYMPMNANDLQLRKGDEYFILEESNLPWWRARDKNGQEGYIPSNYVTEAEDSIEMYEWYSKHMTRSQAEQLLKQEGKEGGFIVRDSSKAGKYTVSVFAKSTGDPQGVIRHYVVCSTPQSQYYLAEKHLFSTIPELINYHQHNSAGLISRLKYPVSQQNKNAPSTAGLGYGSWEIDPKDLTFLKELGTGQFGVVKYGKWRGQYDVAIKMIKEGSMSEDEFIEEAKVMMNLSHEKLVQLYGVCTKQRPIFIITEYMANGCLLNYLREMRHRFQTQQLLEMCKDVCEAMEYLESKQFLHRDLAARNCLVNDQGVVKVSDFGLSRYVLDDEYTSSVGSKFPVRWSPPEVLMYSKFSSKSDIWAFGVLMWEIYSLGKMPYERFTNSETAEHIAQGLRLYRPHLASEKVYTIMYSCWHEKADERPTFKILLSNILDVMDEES

[8] = biological target: BMP-2-inducible protein kinase (Homo sapiens, UniProt Q9NSY1)
Chain of BMP-2-inducible protein kinase (Q9NSY1 whole entry): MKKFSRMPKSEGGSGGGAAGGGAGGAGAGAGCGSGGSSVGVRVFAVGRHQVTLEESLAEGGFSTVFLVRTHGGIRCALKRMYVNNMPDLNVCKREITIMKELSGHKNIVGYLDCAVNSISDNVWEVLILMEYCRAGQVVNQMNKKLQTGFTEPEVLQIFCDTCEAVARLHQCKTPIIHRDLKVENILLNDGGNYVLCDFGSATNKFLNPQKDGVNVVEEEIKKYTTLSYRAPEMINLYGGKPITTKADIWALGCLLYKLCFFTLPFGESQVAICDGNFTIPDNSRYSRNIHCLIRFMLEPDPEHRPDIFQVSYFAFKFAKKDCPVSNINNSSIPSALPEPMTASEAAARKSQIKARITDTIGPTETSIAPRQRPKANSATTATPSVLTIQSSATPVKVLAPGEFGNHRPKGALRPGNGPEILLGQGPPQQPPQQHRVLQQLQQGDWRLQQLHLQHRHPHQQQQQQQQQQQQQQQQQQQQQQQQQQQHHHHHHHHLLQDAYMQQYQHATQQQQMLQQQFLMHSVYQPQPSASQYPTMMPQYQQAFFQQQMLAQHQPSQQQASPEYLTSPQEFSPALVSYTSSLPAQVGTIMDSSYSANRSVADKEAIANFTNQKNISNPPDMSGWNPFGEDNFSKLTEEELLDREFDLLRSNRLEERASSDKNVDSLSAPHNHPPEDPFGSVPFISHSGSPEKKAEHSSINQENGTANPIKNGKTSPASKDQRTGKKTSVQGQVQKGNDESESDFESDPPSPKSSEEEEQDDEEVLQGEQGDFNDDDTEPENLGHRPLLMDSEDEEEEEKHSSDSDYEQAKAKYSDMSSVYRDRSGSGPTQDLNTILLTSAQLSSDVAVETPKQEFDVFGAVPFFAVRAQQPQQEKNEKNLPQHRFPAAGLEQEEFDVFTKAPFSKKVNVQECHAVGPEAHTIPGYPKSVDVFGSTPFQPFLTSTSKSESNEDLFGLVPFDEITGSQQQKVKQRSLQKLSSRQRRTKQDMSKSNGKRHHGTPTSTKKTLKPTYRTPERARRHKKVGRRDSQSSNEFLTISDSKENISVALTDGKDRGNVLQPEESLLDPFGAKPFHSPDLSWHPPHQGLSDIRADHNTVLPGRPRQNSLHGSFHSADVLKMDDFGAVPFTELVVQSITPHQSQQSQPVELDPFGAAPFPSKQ

[9] = biological target: Serine/threonine-protein kinase 16 (Homo sapiens, UniProt O75716)
Chain of Serine/threonine-protein kinase 16 (O75716 whole entry): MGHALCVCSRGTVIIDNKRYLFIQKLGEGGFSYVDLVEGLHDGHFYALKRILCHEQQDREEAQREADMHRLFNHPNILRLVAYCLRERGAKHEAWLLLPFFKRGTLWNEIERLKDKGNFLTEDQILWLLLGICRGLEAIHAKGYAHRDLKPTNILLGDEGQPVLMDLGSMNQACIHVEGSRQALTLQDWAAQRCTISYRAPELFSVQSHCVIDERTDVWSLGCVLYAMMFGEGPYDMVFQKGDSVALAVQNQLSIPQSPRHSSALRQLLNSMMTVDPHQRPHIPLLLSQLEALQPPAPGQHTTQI

[10] = biological target: Death-associated protein kinase 3 (Homo sapiens, UniProt O43293)
Chain of Death-associated protein kinase 3 (O43293 whole entry): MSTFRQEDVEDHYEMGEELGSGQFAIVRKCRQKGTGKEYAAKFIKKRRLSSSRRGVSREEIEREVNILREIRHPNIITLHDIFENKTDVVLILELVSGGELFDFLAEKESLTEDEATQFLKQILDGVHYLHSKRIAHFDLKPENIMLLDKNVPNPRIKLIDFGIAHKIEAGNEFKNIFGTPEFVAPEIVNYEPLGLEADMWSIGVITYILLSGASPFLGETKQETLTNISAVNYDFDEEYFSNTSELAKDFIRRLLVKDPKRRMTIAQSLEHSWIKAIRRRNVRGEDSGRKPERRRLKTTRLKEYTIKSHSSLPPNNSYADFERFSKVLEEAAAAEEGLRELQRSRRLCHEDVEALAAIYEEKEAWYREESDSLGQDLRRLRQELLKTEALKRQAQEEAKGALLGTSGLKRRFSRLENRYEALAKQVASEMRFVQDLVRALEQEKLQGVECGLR

[11] = biological target: Death-associated protein kinase 2 (Homo sapiens, UniProt Q9UIK4)
Chain of Death-associated protein kinase 2 (Q9UIK4 whole entry): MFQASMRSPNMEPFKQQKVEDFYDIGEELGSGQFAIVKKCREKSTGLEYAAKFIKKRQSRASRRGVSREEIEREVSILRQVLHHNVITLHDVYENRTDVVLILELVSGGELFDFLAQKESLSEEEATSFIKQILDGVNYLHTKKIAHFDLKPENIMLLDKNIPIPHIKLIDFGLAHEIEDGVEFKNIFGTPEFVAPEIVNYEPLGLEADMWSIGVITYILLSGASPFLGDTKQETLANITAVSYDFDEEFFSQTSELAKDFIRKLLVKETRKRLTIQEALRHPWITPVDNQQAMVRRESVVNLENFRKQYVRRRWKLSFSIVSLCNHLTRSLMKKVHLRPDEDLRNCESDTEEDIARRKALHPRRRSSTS

Aurora kinase A = biological target: T3, Aurora kinase A (Homo sapiens, UniProt O14965)
T3 sequence (O14965 whole entry): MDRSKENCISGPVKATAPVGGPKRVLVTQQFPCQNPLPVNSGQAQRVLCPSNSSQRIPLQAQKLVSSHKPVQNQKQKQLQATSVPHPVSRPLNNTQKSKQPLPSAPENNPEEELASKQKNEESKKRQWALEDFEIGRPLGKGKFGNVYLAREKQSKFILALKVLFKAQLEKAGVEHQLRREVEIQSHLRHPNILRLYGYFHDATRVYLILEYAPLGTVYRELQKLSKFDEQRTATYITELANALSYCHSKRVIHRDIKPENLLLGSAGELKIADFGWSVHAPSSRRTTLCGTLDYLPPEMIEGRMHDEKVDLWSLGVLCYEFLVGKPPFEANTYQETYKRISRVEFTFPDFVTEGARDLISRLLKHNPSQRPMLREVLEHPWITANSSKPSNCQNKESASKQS

[12] = biological target: Serine/threonine-protein kinase pim-2 (Homo sapiens, UniProt Q9P1W9)
Chain of Serine/threonine-protein kinase pim-2 (Q9P1W9 whole entry): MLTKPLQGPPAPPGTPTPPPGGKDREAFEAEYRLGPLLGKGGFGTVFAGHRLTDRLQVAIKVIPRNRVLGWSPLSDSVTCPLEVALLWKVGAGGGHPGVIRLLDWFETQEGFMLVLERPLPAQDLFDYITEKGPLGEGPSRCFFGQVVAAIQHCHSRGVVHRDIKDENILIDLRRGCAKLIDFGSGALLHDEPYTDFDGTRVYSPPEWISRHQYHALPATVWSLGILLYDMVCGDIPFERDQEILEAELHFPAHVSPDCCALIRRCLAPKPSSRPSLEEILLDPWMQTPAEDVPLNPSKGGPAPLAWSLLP

Question: What does the source list for `Oc1ccc(-c2nc(-c3ccc(F)cc3)c(-c3ccncc3)[nH]2)cc1` [SB-202190]?
Answer: Kd [1]: 3800 nM; Kd [2]: 3000 nM; Kd [3]: 6000 nM

Question: Which results are given for `CCOc1cc2ncc(C#N)c(Nc3ccc(F)c(Cl)c3)c2cc1NC(=O)/C=C/CN(C)C` [PELITINIB]?
Answer: Kd [4]: 930 nM; Kd [5]: 250 nM; Kd [6]: 2100 nM; Kd [7]: 1500 nM

Question: Which results are given for `Oc1c2ccccc2c2c3c(cccc13)N=N2` [SP-600125]?
Answer: Kd [8]: 25 nM; Kd [9]: 510 nM; Kd [10]: 410 nM; Kd [11]: 610 nM; Kd (Aurora kinase A): 980 nM; Kd [12]: 460 nM
